Measurements from publication PMC11645656, “MRGPRX4 mediates phospho-drug associated pruritus in a humanized mouse model” (Science translational medicine, 2024).
“And” between values parts separate entries of the source, which are not always exact repeats. Equal values may be shown once.

What was measured:
Type in all cases: cell-based
MRGPRX4 WT (S83) = MRGPRX4 WT (S83) (Homo sapiens, UniProt Q96LA9, L83S); assay: PRESTO-Tango β-arrestin recruitment assay, HTLA cells stably expressing WT (S83) MRGPRX4; set-up: expressed in transfected cells; conditions: HTLA::MRGPRX4
Description: HTLA cells, a cell line derived from HEK293 and engineered to stably express a tTA-dependent luciferase reporter and a β-arrestin2-TEV fusion gene, were generously provided by Richard Axel's laboratory. HTLA cells were cultured in growth medium containing 2 μg/ml puromycin and 100 μg/ml hygromycin B in 5% CO2 at 37 °C. Stably MRGPRX4-expressing HTLA cells were generated by transfecting pcDNA3.1(+)-Zeo containing MRGPRX4-Tango construct (either with WT or S83L mutant sequence) into HTLA cells with Lipofectamine 3000 and selecting the successful transfected clones with Zeocin.
HTLA cells stably expressing either WT or S83L MRGPRX4 were seeded in PDL-coated 96-well white clear bottom cell culture plates with DMEM containing 10% FBS, at a density of 35,000 cells per well and were allowed to attach to the bottom of the wells overnight. The next day, growth medium was replaced with 100 μl of serum-free medium containing the tested drugs at various concentrations, and the cells were then incubated at 37°C for 24 h. On the following day, media with drug solutions was removed and 50 μl per well of Bright-Glo™ Reagent from Bright-Glo™ Luciferase Assay System (Promega) was loaded. The plate was incubated at room temperature in the dark for 5 min, and the relative luminescence units were measured using the Flexstation-3 instrument with SoftMax®Pro 7.1 software (Molecular Devices). Dose response curves and EC50s were analyzed as described above.
Data are from at least two independent experiments, each performed in
triplicate, and are depicted as mean ± SEM.
arrestin2-TEV fusion gene and a tTA -dependent luciferase reporter.

MRGPRX4 (S83) = molecular target: T1, MRGPRX4 (S83) (Homo sapiens, UniProt Q96LA9, L83S); assay: EC50 determination, intracellular calcium mobilization in MRGPRX4 stably expressed HEK293 cells (FLIPR Calcium 5, Flexstation-3); set-up: Fig. 1D dose-response, calcium mobilization response (individual replicate) / calcium mobilization response (Fig. 1D dose-response raw data): unit not given here
T1 construct: expressed in transfected cells
Description: HEK293 cells and MRGPRX4 stably expressed HEK293 cells were seeded in 100 μl culture media on 96-well plates at a density of 40,000 cells per well and incubated overnight. The next day, the media were replaced with a dye-loading solution from the FLIPR Calcium 5 assay kit (Molecular Devices), diluted in Hank's Balanced Salt Solution (HBSS) with 20 mM HEPES, pH 7.4. After 1 h of incubation at 37°C, cells were allowed to recover for 10 min in the dark at room temperature prior to performing intracellular calcium mobilization assay in a Flexstation-3 instrument with SoftMax®Pro 7.1 software (Molecular Devices). Serial concentrations of tested drugs were prepared in HBSS/HEPES solution at 3X concentration. […] Compounds were tested in triplicates and the signals were averaged. Responses were determined by subtracting the minimum signal (at the baseline before adding the drug) from the maximum signal (obtained after drug stimulation). Four-parameter logistic (4PL) curve fit was used to plot the dose-response curves. […] Both dose-response curve fitting and EC50s calculation are computed with GraphPad Prism software (version: 6.o or above).

HTLA cells = assay: PRESTO-Tango β-arrestin recruitment assay, parental HTLA cells without MRGPRX4 (control, fig. S1)
Source text: Supplement NIHMS2038790-supplement-table.xlsx, sheet "fig. S1" | column: Concentration (M)

T1 sequence (Q96LA9 whole entry L83S): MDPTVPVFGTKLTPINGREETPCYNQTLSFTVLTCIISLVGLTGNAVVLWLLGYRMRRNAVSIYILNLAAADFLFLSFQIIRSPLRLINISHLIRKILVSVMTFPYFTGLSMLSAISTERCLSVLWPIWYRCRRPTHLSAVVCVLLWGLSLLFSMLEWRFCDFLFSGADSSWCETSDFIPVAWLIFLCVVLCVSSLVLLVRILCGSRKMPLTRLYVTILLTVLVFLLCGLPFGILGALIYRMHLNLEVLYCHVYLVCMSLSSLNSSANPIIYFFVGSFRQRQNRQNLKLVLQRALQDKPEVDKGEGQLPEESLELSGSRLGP
Chain of MRGPRX4 WT (S83) (Q96LA9 whole entry L83S, the tested form may be a part): as the sequence (Q96LA9 whole entry L83S) above

Q: How did the “PRESTO-Tango response (fig. S1), single replicate” value (shortened to “PRESTO-Tango response (fig. S1)”) (MRGPRX4 WT (S83); concentration 9.77e-7 M) turn out when `C[C@@H]1C[C@H]2[C@@H]3CCC4=CC(=O)C=C[C@]4(C)[C@@]3(F)[C@@H](O)C[C@]2(C)[C@@]1(O)C(=O)CO` [Dexamethasone] was run?
A: 0.05502 and 0.04613 and 0.0583 and 0.05727 and 0.00632 and 0.09586

Q: What about the “PRESTO-Tango response (fig. S1)” value (MRGPRX4 WT (S83); concentration 1.95e-6 M) of the same compound?
A: 0.08603 and 0.06619 and 0.1004 and 0.1201 and 0.05846 and 0.07406

Q: What about the “PRESTO-Tango response (fig. S1)” value (MRGPRX4 WT (S83); concentration 0.000004 M) of the same compound?
A: 0.0533 and 0.07958 and 0.05713 and 0.07013 and 0.1112 and 0.008646

Q: And the “PRESTO-Tango response (fig. S1)” value (MRGPRX4 WT (S83); concentration 0.000008 M)?
A: 0.06153 and 0.0682 and 0.07104 and 0.08136 and 0.03922 and 0.08019

Q: And the “PRESTO-Tango response (fig. S1)” value (MRGPRX4 WT (S83); concentration 3.13e-5 M)?
A: 0.0689 and 0.04671 and 0.04196 and 0.06207 and 0.03885 and 0.05666

Q: And the “PRESTO-Tango response (fig. S1)” value (MRGPRX4 WT (S83); concentration 6.25e-5 M)?
A: 0.03211 and 0.04959 and 0.04067 and 0.02014 and 0.05174 and 0.05049

Q: And the “PRESTO-Tango response (fig. S1)” value (MRGPRX4 WT (S83); concentration 0.00025 M)?
A: 0.07947 and 0.03843 and 0.03927 and 0.03864 and 0.06682 and 0.0517

Q: What about the “PRESTO-Tango response (fig. S1)” value (MRGPRX4 WT (S83); concentration 0.0005 M) of the same compound?
A: 0.06213 and 0.03131 and 0.04202 and 0.04862 and 0.02625 and 0.06059

Q: And the “PRESTO-Tango response (fig. S1)” value (MRGPRX4 WT (S83); concentration 0.001 M)?
A: 0.05095 and 0.05745 and 0.03908 and 0.09388 and 0.02339 and 0.03021

Q: And the “Fig. 1D dose-response, calcium mobilization response (individual replicate)” value (MRGPRX4 (S83); Concentration 9.76563e-7 M)?
A: -21.027 and -38.068 and -44.01 and -38.887 and -46.292 and -51.601 and -47.998 and -19.021 and -24.245

Q: What about the “Fig. 1D dose-response, calcium mobilization response (individual replicate)” value (MRGPRX4 (S83); Concentration 1.95313e-6 M) of the same compound?
A: -34.306 and -12.488 and -34.424 and -46.421 and -44.65 and -42.861 and -53.58 and -51.620 and -38.055

Q: And the “Fig. 1D dose-response, calcium mobilization response (individual replicate)” value (MRGPRX4 (S83); Concentration 3.90625e-6 M)?
A: -45.647 and -46.32 and -35.376 and -38.61 and -34.811 and -45.234 and -56.373 and -60.668 and -3.309

Q: And the “Fig. 1D dose-response, calcium mobilization response (individual replicate)” value (MRGPRX4 (S83); Concentration 7.8125e-6 M)?
A: -36.025 and -46.229 and -47.556 and -37.359 and -53.743 and -48.739 and -48.609 and -47.284 and -56.875

Q: What about the “Fig. 1D dose-response, calcium mobilization response (individual replicate)” value (MRGPRX4 (S83); Concentration 1.5625e-5 M) of the same compound?
A: -54.866 and -50.537 and -42.313 and -47.552 and -53.2 and -55.3 and -57.812 and -33.441 and -66.652

Q: What about the “Fig. 1D dose-response, calcium mobilization response (individual replicate)” value (MRGPRX4 (S83); Concentration 3.125e-5 M) of the same compound?
A: -56.076 and -45.2 and -44.531 and -46.041 and -46.006 and -58.081 and -60.475 and -59.746 and -11.251

Q: And the “Fig. 1D dose-response, calcium mobilization response (individual replicate)” value (MRGPRX4 (S83); Concentration 6.25e-5 M)?
A: -51.427 and -36.666 and -43.901 and -55.62 and -42.251 and -57.261 and -57.456 and -8.995 and -73.787

Q: What about the “Fig. 1D dose-response, calcium mobilization response (individual replicate)” value (MRGPRX4 (S83); Concentration 0.00025 M) of the same compound?
A: -40.896 and -34.789 and -49.545 and -32.204 and -28.295 and -45.507 and -42.773 and -53.155 and -37.185

Q: And the “Fig. 1D dose-response, calcium mobilization response (individual replicate)” value (MRGPRX4 (S83); Concentration 0.0005 M)?
A: -3.046 and -9.71 and -33.403 and -15.448 and -3.273 and -16.368 and -26.248 and -13.645 and -6.391

Q: What about the “Fig. 1D dose-response, calcium mobilization response (individual replicate)” value (MRGPRX4 (S83); Concentration 0.001 M) of the same compound?
A: -8.458 and -6.416 and -11.748 and -15.382 and -27.522 and -19.884 and -14.893 and -13.481 and -19.179

Q: And the “PRESTO-Tango response (fig. S1)” value (HTLA cells; concentration 9.77e-7 M)?
A: 0.004822 and 0.002858 and 0.001836 and 0.006042 and 0.003642 and 0.003121

Q: And the “PRESTO-Tango response (fig. S1)” value (HTLA cells; concentration 1.95e-6 M)?
A: 0.004669 and 0.01135 and 0.007279 and 0.01201 and 0.004751 and 0.007109

Q: What about the “PRESTO-Tango response (fig. S1)” value (HTLA cells; concentration 0.000004 M) of the same compound?
A: 0.004146 and 0.005626 and 0.002299 and 0.005155 and 0.007205 and 0.002627

Q: And the “PRESTO-Tango response (fig. S1)” value (HTLA cells; concentration 0.000008 M)?
A: 0.006851 and 0.005435 and 0.002472 and 0.006078 and 0.009879 and 0.006343

Q: And the “PRESTO-Tango response (fig. S1)” value (HTLA cells; concentration 3.13e-5 M)?
A: 0.004236 and 0.003572 and 0.004837 and 0.002213 and 0.004661 and 0.004714

Q: What about the “PRESTO-Tango response (fig. S1)” value (HTLA cells; concentration 6.25e-5 M) of the same compound?
A: 0.00398 and 0.007183 and 0.008495 and 0.006729 and 0.001521 and 0.004353

Q: What about the “PRESTO-Tango response (fig. S1)” value (HTLA cells; concentration 0.00025 M) of the same compound?
A: 0.001595 and 0.004197 and 0.004126 and 0.004268 and 0.000295 and 0.005991

Q: What about the “PRESTO-Tango response (fig. S1)” value (HTLA cells; concentration 0.0005 M) of the same compound?
A: 0.002985 and 0.003661 and 0.004712 and 0.003009 and 0.002249 and 0.001042

Q: And the “PRESTO-Tango response (fig. S1)” value (HTLA cells; concentration 0.001 M)?
A: 0.002207 and 0.002577 and 0.002201 and 0.000402 and 0.004573 and 0.000993
